Measurements taken from patent US20220213126A1, “SMALL MOLECULE AUTOPHAGY INDUCERS FOR THE TREATMENT OF CANCER AND NEURODEGENERATIVE DISEASES” (John Wayne Cancer Institute, priority 2019, published 2022).
Several values for one entry are separate records, joined by “and”; a condition that tells them apart may be missing. Equal values may be shown once. Read-outs that look alike come from different tables or passages of the source.

Assays:
ULK1 = assay: Western blot of autophagy proteins in MDA-MB-231 cells; type: cell-based; conditions: 10 μM, MDA-MB-231, different time points
Description: FIG. 6 is a Western blot of autophagy proteins in TNBC cells treated with vehicle (control), VMY-BC-1, or Rapamycin. Western blot is shown for p-ULK1, LC3 A/B, and cleaved PARP.
To identify the functional target of VMY-BC-1, preliminary cell viability assays were carried out using siRNA to knock down each of the 10 identified binding proteins. […] Considering that that low ULK1 expression is associated with TNBC disease progression (Tang et al., Breast Cancer Res. Treat. 134:549-560, 2012) and autophagy controls the level of various DNA repair and checkpoint proteins in the DNA damage response pathway (Czarny et al., Int. J. Mol. Sci. 16:2641-2662, 2015; Gomes et al., Int. J. Mol. Sci. 18:2351, 2017), ULK1 activity in response to VMY-BC-1 was investigated. Protein extracts were made from MDA-MB-231 cells treated with vehicle control, VMY-BC-1 (10 μM), and Rapamycin (200 nM) at different time points.

CYP1A2 = target: T1, CYP1A2 (Homo sapiens, UniProt P05177); assay: CYP inhibition in pooled human liver microsomes; type: in vitro ADME
T1 construct: from tissue; host or cells: pooled human liver microsomes
T1 sequence (P05177 whole entry): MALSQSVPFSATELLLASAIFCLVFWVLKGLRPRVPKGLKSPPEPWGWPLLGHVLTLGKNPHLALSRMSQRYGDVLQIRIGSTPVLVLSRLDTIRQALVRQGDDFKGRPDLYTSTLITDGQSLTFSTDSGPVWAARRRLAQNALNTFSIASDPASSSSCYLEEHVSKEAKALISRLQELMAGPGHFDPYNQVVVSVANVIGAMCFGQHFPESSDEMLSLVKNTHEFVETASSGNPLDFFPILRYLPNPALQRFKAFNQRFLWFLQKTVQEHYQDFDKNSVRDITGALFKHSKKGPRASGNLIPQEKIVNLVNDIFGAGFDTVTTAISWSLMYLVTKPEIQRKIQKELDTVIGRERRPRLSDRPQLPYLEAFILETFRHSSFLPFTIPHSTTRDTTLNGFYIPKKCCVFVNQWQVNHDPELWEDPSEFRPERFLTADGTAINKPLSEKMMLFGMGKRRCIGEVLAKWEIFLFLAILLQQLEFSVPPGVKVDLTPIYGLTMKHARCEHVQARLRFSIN

CYP2C9 = target: T2, CYP2C9 (Homo sapiens, UniProt P11712); assay: CYP inhibition in pooled human liver microsomes; type: in vitro ADME
T2 construct: from tissue; host or cells: pooled human liver microsomes
T2 sequence (P11712 whole entry): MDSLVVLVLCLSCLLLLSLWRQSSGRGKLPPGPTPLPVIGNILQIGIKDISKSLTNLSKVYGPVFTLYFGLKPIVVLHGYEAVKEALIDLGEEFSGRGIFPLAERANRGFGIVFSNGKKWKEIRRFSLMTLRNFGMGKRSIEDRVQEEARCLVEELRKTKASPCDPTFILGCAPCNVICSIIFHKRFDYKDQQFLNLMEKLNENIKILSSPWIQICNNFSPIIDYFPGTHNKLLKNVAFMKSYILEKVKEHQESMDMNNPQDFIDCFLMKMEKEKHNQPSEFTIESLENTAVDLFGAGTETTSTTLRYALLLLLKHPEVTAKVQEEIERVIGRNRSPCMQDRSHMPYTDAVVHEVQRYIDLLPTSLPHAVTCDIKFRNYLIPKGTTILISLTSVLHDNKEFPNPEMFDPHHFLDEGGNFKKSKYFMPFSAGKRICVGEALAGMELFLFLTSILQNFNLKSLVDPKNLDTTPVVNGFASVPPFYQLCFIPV

CYP3A4 = target: T3, CYP3A4 (Homo sapiens, UniProt P08684); assay: CYP inhibition in pooled human liver microsomes; type: in vitro ADME
T3 construct: from tissue; host or cells: pooled human liver microsomes
T3 sequence (P08684 2-503): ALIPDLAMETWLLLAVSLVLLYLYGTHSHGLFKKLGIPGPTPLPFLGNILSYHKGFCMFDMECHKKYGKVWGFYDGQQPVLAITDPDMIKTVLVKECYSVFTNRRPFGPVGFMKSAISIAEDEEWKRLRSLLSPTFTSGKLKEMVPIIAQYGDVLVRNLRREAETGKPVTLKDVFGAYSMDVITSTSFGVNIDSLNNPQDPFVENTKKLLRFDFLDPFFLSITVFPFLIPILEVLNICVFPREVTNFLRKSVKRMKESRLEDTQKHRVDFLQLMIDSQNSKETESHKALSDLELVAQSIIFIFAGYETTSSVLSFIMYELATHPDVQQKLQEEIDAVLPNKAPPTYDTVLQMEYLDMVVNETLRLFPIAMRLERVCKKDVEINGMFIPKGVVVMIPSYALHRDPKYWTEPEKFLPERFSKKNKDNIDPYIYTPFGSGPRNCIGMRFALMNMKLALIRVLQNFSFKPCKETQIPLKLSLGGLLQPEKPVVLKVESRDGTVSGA

[1] = Mouse plasma protein binding (in vitro binding study); type: in vitro ADME, CD1 mouse
Description: (§1) Free drug fraction in brain and plasma compartment was determined in vitro (Table 7). Brain to plasma (B/P) ratio was also determined in vivo (Table 8).

[2] = In vivo ADME/plasma pharmacokinetics in male CD1 mice
Description: FIG. 8 is a graph showing plasma pharmacokinetics of VMY-BC-1 in vivo. Concentrations are expressed as the mean±SEM.
In vivo ADME characteristics were determined in male CD1 mice following VMY-BC-1 administration at 1 mg/kg intravenously and 25 mg/kg and 100 mg/kg orally (FIG. 8). […] Sustained oral absorption following the 100 mg/kg oral administration indicated solubility was not limited oral absorption.

[3] = Brain pharmacokinetics in mice; type: in vivo
Description: Pharmacokinetics of VMY-BC-1 in the brain were assessed in mice administered 25 mg/kg VMY-BC-1 p.o. (Table 6).
as §1

[4] = Mouse brain homogenate binding (in vitro binding study); type: in vitro ADME
Description: as §1

U87 MG tumor xenografts = assay: U87 GBM tumor xenograft efficacy; type: in vivo, SCID mice
Description: To evaluate the anti-tumor efficacy of VMY-BC-1 in vivo, GBM tumor xenografts were established in the flanks of SCID mice. 5×10^6 U87 MG (ATCC HTB-14™) cells in 1×HBSS with 1:1 Matrigel® were implanted subcutaneously in the flank of 5-6 week old female SCID mice (C.B-lgh-1b/GbmsTac-Prkdc^scid-Lyst^bg N7; Taconic Biosciences, India). Mice (n=8) were treated with vehicle (2% (v/v) Tween® 80+98% (v/v) of 0.5% (w/v) hydroxypropyl methylcellulose (HPMC) in water) or VMY-BC-1 75 mg/kg PO daily for 14 days. The dose volume was 10 mL/kg. Tumor volume, tumor growth inhibition (TGI), body weight, and clinical signs were monitored as described in Example 5.

[5] = 25 mg/kg single dose P.O., 0.00 h
[6] = 25 mg/kg single dose P.O., 12.00 h
[7] = 25 mg/kg single dose P.O., 24.00 h

COc1ccc(/C=C/c2cc(OC)cc(B(O)O)c2)cc1 [VMY-BC-1]
Autophagy proteins and phosphorylation of ULK1 and LC3 A/B (Western blot) (ULK1): increasing amounts of autophagy proteins over time as well as increased phosphorylation of ULK1 and LC3 A/B | IC50 (CYP1A2): 5 µM and 4.7 µM | IC50 (CYP2C9): 78.4 µM | IC50 (CYP3A4; read-out: IC50 CYP 3A): 70 to 100 µM | IC50 (CYP3A4; read-out: IC50 inhibition of CYP3A4MD2): > 100 µM | IC50 (CYP3A4; read-out: IC50 inhibition of CYP3A4TST): > 100 µM | recovery ([1]; CD1, mouse, mouse plasma): 89.3% | fraction unbound ([1]; CD1, mouse, plasma, Table 3): 0.265 | Plasma protein binding ([1]; CD1 mouse plasma): moderate plasma protein binding | Bound (%) ([1]; Mouse Plasma): 73.48% | fu (%) ([1]; Mouse Plasma): 26.52% | Plasma clearance ([2]; 1 mg/kg intravenously): 50 % of hepatic blood flow | half-life ([2]; male, CD1, mouse, plasma, iv, 1 mg/kg intravenously, read-out: Elimination half-life (converted)): ~1 h | Vd ([2]; male, CD1, mouse, plasma, iv, 1 mg/kg intravenously, read-out: Volume of distribution): 2.4 L/kg | bioavailability ([2]; male, CD1, mouse, plasma, 25 mg/kg oral, read-out: Oral suspension bioavailability F (%)): > 100% | Cmax ([2]; male, CD1, mouse, plasma, oral, dose not given, read-out: Mean maximum concentration (Cmax)): 3060 ng/mL | Tmax ([2]; male, CD1, mouse, plasma, oral, read-out: Time to maximum concentration (Tmax)): 1 to 2 h | Increase in Cmax ([2]; oral dose 25 to 100 mg/kg): approximately 5 fold | Increase in plasma exposures ([2]; oral dose 25 to 100 mg/kg): ~7 fold | Mean Brain Concentration [3, 5]: 0 ng/g | Mean Plasma Concentration [3, 5]: 0 ng/mL | Mean Brain Concentration ([3]; 25 mg/kg single dose P.O., 0.50 h, in ng/g): 40017.53 | Mean Plasma Concentration ([3]; 25 mg/kg single dose P.O., 0.50 h, in ng/mL): 5273.66 | Mean Brain Concentration ([3]; 25 mg/kg single dose P.O., 1.00 h, in ng/g): 28802.80 | Mean Plasma Concentration ([3]; 25 mg/kg single dose P.O., 1.00 h, in ng/mL): 5486.04 | Mean Brain Concentration ([3]; 25 mg/kg single dose P.O., 3.00 h, in ng/g): 6158.13 | Mean Plasma Concentration ([3]; 25 mg/kg single dose P.O., 3.00 h, in ng/mL): 1945.44 | Mean Brain Concentration ([3]; 25 mg/kg single dose P.O., 6.00 h, in ng/g): 1948.79 | Mean Plasma Concentration ([3]; 25 mg/kg single dose P.O., 6.00 h, in ng/mL): 889.87 | Mean Brain Concentration [3, 6]: 0 ng/g | Mean Plasma Concentration [3, 6]: 0 ng/mL | Mean Brain Concentration [3, 7]: 0 ng/g | Mean Plasma Concentration [3, 7]: 0 ng/mL | AUCextrap ([3]; Brain, oral 25 mg/kg): 4.74% | AUCinf ([3]; Brain, oral 25 mg/kg): 78032.82 ng·h/g | AUClast ([3]; Brain, oral 25 mg/kg): 74330.76 ng·h/g | AUCextrap ([3]; Plasma, oral 25 mg/kg): 13.75% | Kp at 0 h ([3]; mouse, brain and plasma, oral, 25 mg/kg single dose P.O., 0.00 h, read-out: Brain to Plasma Ratio): 0 | Kp at 12 h ([3]; mouse, brain and plasma, oral, 25 mg/kg single dose P.O., 12.00 h, read-out: Brain to Plasma Ratio): 0 | Kp at 24 h ([3]; mouse, brain and plasma, oral, 25 mg/kg single dose P.O., 24.00 h, read-out: Brain to Plasma Ratio): 0 | Kp ([3]; mouse, brain and plasma, po, 25 mg/kg p.o., read-out: Cmax relative to plasma): 7 | Kp at 0.5 h ([3]; mouse, brain and plasma, po, 25 mg/kg single dose P.O., 0.50 h, read-out: Brain to Plasma Ratio): 7.59 | Kp at 1 h ([3]; mouse, brain and plasma, po, 25 mg/kg single dose P.O., 1.00 h, read-out: Brain to Plasma Ratio): 5.25 | Kp at 3 h ([3]; mouse, brain and plasma, po, 25 mg/kg single dose P.O., 3.00 h, read-out: Brain to Plasma Ratio): 3.17 | Kp at 6 h ([3]; mouse, brain and plasma, po, 25 mg/kg single dose P.O., 6.00 h, read-out: Brain to Plasma Ratio): 2.19 | Cmax ([3]; mouse, Brain, oral 25 mg/kg): 40000 ng/g | MRT last ([3]; mouse, Brain, oral 25 mg/kg): 1.48 h | Tmax ([3]; mouse, Brain, oral 25 mg/kg): 0.5 h | half-life ([3]; mouse, Brain, oral 25 mg/kg): 1.32 h | AUC(0-inf) ([3]; mouse, Plasma, oral 25 mg/kg): 18200 ng·h/mL | AUC(0-t) ([3]; mouse, Plasma, oral 25 mg/kg): 15700 ng·h/mL | Cmax ([3]; mouse, Plasma, oral 25 mg/kg): 5490 ng/mL | MRT last ([3]; mouse, Plasma, oral 25 mg/kg): 1.96 h | Tmax ([3]; mouse, Plasma, oral 25 mg/kg): 1 h | half-life ([3]; mouse, Plasma, oral 25 mg/kg): 1.95 h | Bound (%) ([4]; Mouse Brain Homogenate): 30.08% | fraction unbound ([4]; Mouse Brain Homogenate): 0.699 | recovery ([4]; mouse, mouse brain homogenate): 108% | Treatment-related adverse effects (body weight and clinical signs) (U87 MG tumor xenografts; 75 mg/kg once daily oral, 14 days): No treatment-related adverse effects were observed | Tumor growth inhibition (U87 MG tumor xenografts; 75 mg/kg once daily oral, end of 2 weeks): 32% | Drug levels in tumor vs plasma (U87 MG tumor xenografts; U87 xenograft mice, 75 mg/kg): higher VMY-BC-1 drug levels in tumor than in plasma | Apoptosis by TUNEL staining (U87 MG tumor xenografts; tumor tissue, 75 mg/kg): significant increase in apoptosis | Reduction in Ki67 proliferation marker vs control (U87 MG tumor xenografts; tumor tissue, 75 mg/kg): 51%
